Measurements: the supplement of paper PMC10307832

Columns and labels:
Assay in all cases: relative viability (nuclei count vs DMSO), 5 days (fraction); higher = more cells survive
NCI-H2342 = tested on: NCI-H2342
In short: (§1)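 Lung cancer cell lines were pin-tool dosed in 1536-well plates on the day after seeding, with either a lone drug or a fixed anchor-drug dose plus five library-drug doses (not always all listed) in √10 steps. Nuclei were counted on 4× images after 5 days. Relative viability is the ratio of treated-well to vehicle-well nuclei counts, with each value a median of duplicate plates.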

HCC-15 = tested on: HCC-15
In short: as §1

A-427 = tested on: A-427
In short: as §1

HCC-827 = tested on: HCC-827
In short: as §1

HARA = tested on: HARA
In short: as §1

201T = tested on: 201T
In short: as §1

NCI-H1975 = tested on: NCI-H1975
In short: as §1

EKVX = tested on: EKVX
In short: as §1

BEN = tested on: BEN
In short: as §1

NCI-H596 = tested on: NCI-H596
In short: as §1

NCI-H23 = tested on: NCI-H23
In short: as §1

NCI-H1437 = tested on: NCI-H1437
In short: as §1

NCI-H358 = tested on: NCI-H358
In short: as §1

NCI-H1666 = tested on: NCI-H1666
In short: as §1

NCI-H650 = tested on: NCI-H650
In short: as §1

HCC-44 = tested on: HCC-44
In short: as §1

SW 900 = tested on: SW 900
In short: as §1

NCI-H838 = tested on: NCI-H838
In short: as §1

NCI-H1792 = tested on: NCI-H1792
In short: as §1

NCI-H441 = tested on: NCI-H441
In short: as §1

## CCN(CC)CCCCNc1ncc2cc(-c3cc(OC)cc(OC)c3)c(NC(=O)NC(C)(C)C)nc2n1 + NC(=O)Nc1cc(-c2cccc(F)c2)sc1C(=O)N[C@H]1CCCNC1 [AZD7762] (partner 0.2 µM)
NCI-H2342; first compound 0.01 µM
  relative viability: 0.44
NCI-H2342; first compound 0.03162 µM
  relative viability: 0.511
NCI-H2342; first compound 0.1 µM
  relative viability: 0.482
NCI-H2342; first compound 0.3162 µM
  relative viability: 0.558
NCI-H2342; first compound 1 µM
  relative viability: 0.485
HCC-15; first compound 0.01 µM
  relative viability: 1.22
HCC-15; first compound 0.03162 µM
  relative viability: 1.17
HCC-15; first compound 0.1 µM
  relative viability: 1.22
HCC-15; first compound 0.3162 µM
  relative viability: 1.37
HCC-15; first compound 1 µM
  relative viability: 1.12
A-427; first compound 0.01 µM
  relative viability: 0.722
A-427; first compound 0.03162 µM
  relative viability: 0.671
A-427; first compound 0.1 µM
  relative viability: 0.778
A-427; first compound 0.3162 µM
  relative viability: 0.549
A-427; first compound 1 µM
  relative viability: 0.421
HCC-827; first compound 0.01 µM
  relative viability: 0.222
HCC-827; first compound 0.03162 µM
  relative viability: 0.249
HCC-827; first compound 0.1 µM
  relative viability: 0.217
HCC-827; first compound 0.3162 µM
  relative viability: 0.236
HCC-827; first compound 1 µM
  relative viability: 0.196
HARA; first compound 0.01 µM
  relative viability: 0.245
HARA; first compound 0.03162 µM
  relative viability: 0.376
HARA; first compound 0.1 µM
  relative viability: 0.327
HARA; first compound 0.3162 µM
  relative viability: 0.277
HARA; first compound 1 µM
  relative viability: 0.241
201T; first compound 0.01 µM
  relative viability: 0.747
201T; first compound 0.03162 µM
  relative viability: 0.617
201T; first compound 0.1 µM
  relative viability: 0.68
201T; first compound 0.3162 µM
  relative viability: 0.685
201T; first compound 1 µM
  relative viability: 0.758
NCI-H1975; first compound 0.01 µM
  relative viability: 0.684
NCI-H1975; first compound 0.03162 µM
  relative viability: 0.676
NCI-H1975; first compound 0.1 µM
  relative viability: 0.776
NCI-H1975; first compound 0.3162 µM
  relative viability: 0.818
NCI-H1975; first compound 1 µM
  relative viability: 0.601
EKVX; first compound 0.03162 µM
  relative viability: 0.585
EKVX; first compound 0.1 µM
  relative viability: 0.643
EKVX; first compound 0.3162 µM
  relative viability: 0.723
EKVX; first compound 1 µM
  relative viability: 0.709
BEN; first compound 0.01 µM
  relative viability: 0.669
BEN; first compound 0.03162 µM
  relative viability: 0.61
BEN; first compound 0.1 µM
  relative viability: 0.703
BEN; first compound 0.3162 µM
  relative viability: 0.757
BEN; first compound 1 µM
  relative viability: 0.676
NCI-H596; first compound 0.01 µM
  relative viability: 1.11
NCI-H596; first compound 0.03162 µM
  relative viability: 1
NCI-H596; first compound 0.1 µM
  relative viability: 1.06
NCI-H596; first compound 0.3162 µM
  relative viability: 0.979
NCI-H596; first compound 1 µM
  relative viability: 0.801
NCI-H23; first compound 0.01 µM
  relative viability: 0.229
NCI-H23; first compound 0.03162 µM
  relative viability: 0.352
NCI-H23; first compound 0.1 µM
  relative viability: 0.323
NCI-H23; first compound 0.3162 µM
  relative viability: 0.207
NCI-H23; first compound 1 µM
  relative viability: 0.172
NCI-H1437; first compound 0.01 µM
  relative viability: 1.2
NCI-H1437; first compound 0.03162 µM
  relative viability: 1.07
NCI-H1437; first compound 0.1 µM
  relative viability: 1.17
NCI-H1437; first compound 0.3162 µM
  relative viability: 1.17
NCI-H1437; first compound 1 µM
  relative viability: 1.04
NCI-H358; first compound 0.01 µM
  relative viability: 0.444
NCI-H358; first compound 0.03162 µM
  relative viability: 0.52
NCI-H358; first compound 0.1 µM
  relative viability: 0.593
NCI-H358; first compound 0.3162 µM
  relative viability: 0.64
NCI-H358; first compound 1 µM
  relative viability: 0.395
NCI-H1666; first compound 0.01 µM
  relative viability: 0.836
NCI-H1666; first compound 0.03162 µM
  relative viability: 0.848
NCI-H1666; first compound 0.1 µM
  relative viability: 0.889
NCI-H1666; first compound 0.3162 µM
  relative viability: 1.12
NCI-H1666; first compound 1 µM
  relative viability: 0.727
NCI-H650; first compound 0.01 µM
  relative viability: 0.909
NCI-H650; first compound 0.03162 µM
  relative viability: 0.944
NCI-H650; first compound 0.1 µM
  relative viability: 0.97
NCI-H650; first compound 0.3162 µM
  relative viability: 1.22
NCI-H650; first compound 1 µM
  relative viability: 0.994
HCC-44; first compound 0.01 µM
  relative viability: 1
HCC-44; first compound 0.03162 µM
  relative viability: 1.02
HCC-44; first compound 0.1 µM
  relative viability: 1.02
HCC-44; first compound 0.3162 µM
  relative viability: 1.02
HCC-44; first compound 1 µM
  relative viability: 1.12
SW 900; first compound 0.01 µM
  relative viability: 0.646
SW 900; first compound 0.03162 µM
  relative viability: 0.637
SW 900; first compound 0.1 µM
  relative viability: 0.626
SW 900; first compound 0.3162 µM
  relative viability: 0.538
SW 900; first compound 1 µM
  relative viability: 0.388
NCI-H838; first compound 0.01 µM
  relative viability: 0.734
NCI-H838; first compound 0.03162 µM
  relative viability: 0.956
NCI-H838; first compound 0.1 µM
  relative viability: 0.992
NCI-H838; first compound 0.3162 µM
  relative viability: 1.1
NCI-H838; first compound 1 µM
  relative viability: 0.76
NCI-H1792; first compound 0.01 µM
  relative viability: 0.817
NCI-H1792; first compound 0.03162 µM
  relative viability: 0.408
NCI-H1792; first compound 0.1 µM
  relative viability: 0.749
NCI-H1792; first compound 0.3162 µM
  relative viability: 0.673
NCI-H1792; first compound 1 µM
  relative viability: 0.586
NCI-H441; first compound 0.01 µM
  relative viability: 1.16
NCI-H441; first compound 0.03162 µM
  relative viability: 1.16
NCI-H441; first compound 0.1 µM
  relative viability: 1.1
NCI-H441; first compound 0.3162 µM
  relative viability: 1.39
NCI-H441; first compound 1 µM
  relative viability: 0.921
